Each structure is given as a SMILES string. Calls of active or inactive are those of the source. No cut-off for these calls is given here.

Series [1] deals with Influenza A virus (A/Anhui/1/2005(H5N1)). Nature of the series: Inhibition of Influenza A virus (A/Anhui/1/2005(H5N1) Neuraminidase using MUNANA as substrate at 100 uM preincubated for 5 to 15 mins followed by substrate addition and measured after 30 mins by fluorescence spectrophotometric method. The settings on record: time 35-45 min.
For series [2] the test system is unchanged. Nature of the series: Inhibition of Influenza A virus (A/Anhui/1/2005(H5N1) Neuraminidase using MUNANA as substrate at 10 uM preincubated for 5 to 15 mins followed by substrate addition and measured after 30 mins by fluorescence spectrophotometric method. The settings on record: time 35-45 min.
Series [3] is described as follows: Tmax in Sprague-Dawley rat at 10 mg/kg, po by LC-MS/MS analysis. The series is classed as ADME, organism-based. The settings on record: in vivo.
Series [4] can be described thus: Inhibition of Influenza A virus (A/California/04/2009 (H1N1)) Neuraminidase using MUNANA as substrate preincubated for 5 to 15 mins followed by substrate addition and measured after 30 mins by fluorescence spectrophotometric method.
A short description of series [5]: AUC in Sprague-Dawley rat at 10 mg/kg, po measured for 24 hrs by LC-MS/MS analysis. Further details: time 24 hrs, dose 10 mg/kg. The following applies: in vivo. Type of series: ADME, organism-based.
Series [6] is described as follows: Bioavailability in Sprague-Dawley rat at 10 mg/kg, iv measured for 24 hrs by LC-MS/MS analysis. Type of series: ADME, organism-based. The settings on record: in vivo.
A short description of series [7]: Inhibition of Influenza A virus (A/Babol/36/2005 (H3N2)) Neuraminidase using MUNANA as substrate preincubated for 5 to 15 mins followed by substrate addition and measured after 30 mins by fluorescence spectrophotometric method.
The nature of series [8]: AUC in Sprague-Dawley rat at 10 mg/kg, iv measured for 24 hrs by LC-MS/MS analysis. The series is classed as ADME, organism-based. Further details: dose 10 mg/kg, time 24 hrs. The settings on record: in vivo.
Series [9] can be described thus: Cmax in Sprague-Dawley rat at 10 mg/kg, po measured for 24 hrs by LC-MS/MS analysis. Type of series: ADME, organism-based. Further details: route oral, dose 10 mg/kg, time 24 hrs. The following applies: in vivo.
The nature of series [10]: Inhibition of Influenza A virus (A/Anhui/1/2005(H5N1) Neuraminidase using MUNANA as substrate preincubated for 5 to 15 mins followed by substrate addition and measured after 30 mins by fluorescence spectrophotometric method.
The nature of the next series: in vivo. The following applies: Sprague-Dawley, rat, iv, 10 mg/kg.
Series [11] is described as follows: Oral bioavailability in rat. The series is classed as ADME, organism-based. The following applies: in vivo.
Series [12] is described as follows: in vitro. The following applies: human, plasma.
For series [13] the following is noted: human, plasma.
Series [14] can be described thus: Cmax in Sprague-Dawley rat at 50 mg/kg, po measured for 24 hrs by LC-MS/MS analysis. The series is classed as ADME, organism-based. Further details: route oral, dose 50 mg/kg, time 24 hrs. The following applies: in vivo.
The nature of series [15]: in vitro. The following applies: rat, liver microsomes.
Series [16] is described as follows: Tmax in Sprague-Dawley rat at 50 mg/kg, po by LC-MS/MS analysis. Type of series: ADME, organism-based. The settings on record: in vivo.
Series [17] in a line: in vitro. The settings on record: human, liver microsomes.
The conditions of series [18]: human, plasma, 2 h.
Series [19] in a line: in vitro. The settings on record: rat, liver microsomes. The source holds these as a separate data set.
Series [20] in a line: AUC in Sprague-Dawley rat at 50 mg/kg, po measured for 24 hrs by LC-MS/MS analysis. Type of series: ADME, organism-based. More on the design: time 24 hrs, dose 50 mg/kg. The settings on record: in vivo.
A short description of series [21]: Oral bioavailability in Sprague-Dawley rat at 50 mg/kg measured for 24 hrs by LC-MS/MS analysis. Type of series: ADME, organism-based. The following applies: in vivo.
Series [22] in a line: in vitro. The settings on record: human, plasma. The source holds these as a separate data set.
Series [23] in a line: in vitro. The following applies: mouse, liver microsomes.
A short description of series [24]: Half life in Sprague-Dawley rat at 50 mg/kg, po measured for 24 hrs by LC-MS/MS analysis. Type of series: ADME, organism-based. The settings on record: in vivo.
A short description of series [25]: in vitro. The following applies: human, plasma. The source holds these as a separate data set.
A short description of series [26]: in vitro. The following applies: human, liver microsomes. The source holds these as a separate data set.
The nature of series [27]: in vitro. The following applies: mouse, liver microsomes. This is another data set of the same source.
The nature of series [28]: Oral bioavailability in ferret. Type of series: ADME, organism-based, Mustela putorius furo. The settings on record: in vivo.

With `CCC(CC)O[C@@H]1C=C(C(=O)O)C[C@H](NC(=O)NCCc2ccccc2)[C@H]1NC(C)=O`, the inhibition in series [1] came out at 17.7%. For the same molecule, the inhibition result in series [2] was “inactive”.
Take `CCC(CC)O[C@@H]1C=C(C(=O)O)C[C@H](N)[C@H]1NC(C)=O` [OSELTAMIVIR CARBOXYLATE]: in series [3], the Tmax was 4 h. The IC50 in series [4] stood at 2500 nM; in [7], 41.7 nM; in series [10], 210 nM. In addition, the AUC at 24 h in series [5] stood at 300 ng·h/mL; in series [8], 8400 ng·h/mL. The molecule further yielded a F in [6] of 100%. The molecule also yielded a Cmax in [9] of 30 ng/mL. The same molecule had a half-life at 24 h in “in vivo” of 1.6 h.
Regarding `CCC(CC)O[C@@H]1C=C(C(=O)O)C[C@H](NC(=S)NC2CC2)[C@H]1NC(C)=O`, the inhibition in [1] was 29.2%; in series [2], 8.7%.
For the molecule `CCC(CC)O[C@@H]1C=C(C(=O)O)C[C@H](NC(N)=S)[C@H]1NC(C)=O`, the values for the inhibition in [1] and in [2] were 51.3% and 16.9%, respectively.
For `CCC(CC)O[C@@H]1C=C(C(=O)O)C[C@H](NC(=O)Nc2cccc(Br)c2)[C@H]1NC(C)=O`, the half-inhibitory concentration (IC50) in [10] (read-out: IC50) was determined as 16900 nM.
`CCC(CC)O[C@@H]1C=C(C(=O)O)C[C@H](NC(=O)Nc2cc(OC)c(OC)c(OC)c2)[C@H]1NC(C)=O` showed an inhibition in [1] of 16.4%. Further, the inhibition result in series [2] is “inactive”.
With `CCC(CC)O[C@@H]1C=C(C(=O)O)C[C@H](NC(=S)NCc2ccc(F)cc2)[C@H]1NC(C)=O`, the inhibition in [1] worked out at 21%. For the same molecule, the inhibition result in series [2] was “inactive”.
The molecule `CCC(CC)O[C@@H]1C=C(C(=O)O)C[C@H](NC(=N)N)[C@H]1NC(C)=O` had a bioavailability in series [11] of 2.1%.
Take `CCC(CC)O[C@@H]1C=C(C(=O)O)C[C@H](NC(=O)NC(C)C)[C@H]1NC(C)=O`: the figures for the inhibition in series [1] and in series [2] were 32.3% and 8.3%, respectively.
For `CCC(CC)O[C@@H]1C=C(C(=O)O)C[C@H](NC(=S)Nc2ccccc2)[C@H]1NC(C)=O` the same measures were 47.1% and 16.6%.
As to `CO[C@@H]([C@@H]1OC(C(=O)O)=C[C@H](NC(=N)N)[C@H]1NC(C)=O)[C@H](O)CO`, in series [11], the bioavailability worked out at 3.5%.
Regarding `CCC(CC)O[C@@H]1C=C(C(=O)O)C[C@H](NC(=O)N2CCCCC2)[C@H]1NC(C)=O`, the inhibition was found to be 56.4% in series [1] and 25.6% in series [2].
`CCC(CC)O[C@@H]1C=C(C(=O)O)C[C@H](NC(=O)Nc2cccc([N+](=O)[O-])c2)[C@H]1NC(C)=O`: the inhibition in [1] came out at 36.9%; in series [2], 6.5%.
The matching figures for `CCC(CC)O[C@@H]1C=C(C(=O)O)C[C@H](NC(=S)NCc2cccc(F)c2)[C@H]1NC(C)=O`: 28.1% and “inactive”.
For `CCC(CC)O[C@@H]1C=C(C(=O)O)C[C@H](NC(=O)NCc2ccc(C#N)cc2)[C@H]1NC(C)=O` the same measures were 32.5% and “inactive”.
On to `CCC(CC)O[C@@H]1C=C(C(=O)O)C[C@H](NC(=S)NCc2ccc(Br)cc2)[C@H]1NC(C)=O`, for which the inhibition in series [1] was 59.6%; in [2], 17%.
Take `CCC(CC)O[C@@H]1C=C(C(=O)O)C[C@H](NC(=S)Nc2ccc(C)c(C)c2)[C@H]1NC(C)=O`: the inhibition in series [1] amounted to 52.4%; in [2] it was 15.3%.
For `CCC(CC)O[C@@H]1C=C(C(=O)O)C[C@H](NC(=O)N(C(C)C)C(C)C)[C@H]1NC(C)=O` the same measures were 63.1% and 32.3%.
As for `CCC(CC)O[C@@H]1C=C(C(=O)O)C[C@H](NC(=S)NC)[C@H]1NC(C)=O`, the IC50 in series [10] (read-out: IC50) stood at 18600 nM.
For `CC(C)[N+](C)(CCOC(=O)C1c2ccccc2Oc2ccccc21)C(C)C.[Br-]` [PROPANTHELINE BROMIDE], in “in vitro [12]”, the share remaining at 10 min came to 68.2%. For the same molecule, in series [13], the Stabilty is 100%.
With `CCC(CC)O[C@@H]1C=C(C(=O)O)C[C@H](NC(N)=O)[C@H]1NC(C)=O`, the IC50 is 8700 nM in series [4], 169 nM in series [7] and 254 nM in series [10] (read-out: IC50). Further, the share remaining at 10 min in the series “in vitro [12]” was determined as 101%. Besides, the concentration in series [14] peaked (Cmax) at 3670 ng/mL. For the same molecule, in series [6], the F stood at 100%. The half-life at 1 h in the series “in vitro [15]”, in the series “in vitro [17]” and in “in vitro [27]” was over 2.42 h each time. Also, the time of peak concentration (Tmax) in [16] is 0.75 h. Moreover, the results for the Stabilty in series [18] and in series [13] were 122.6% and 100%, respectively. Moreover, the figures for the AUC at 24 h in series [8] and in series [20] were 23200 ng·h/mL and 10300 ng·h/mL, respectively. Further, the amount remaining at 1 h in “in vitro [19]” came to 85.5%; in the series “in vitro [23]”, 100%; in “in vitro [25]” it was 102%; in the series “in vitro [26]” it was 99.1%. The molecule further returned a bioavailability in series [21] of 8.8%. For the same molecule, the amount remaining at 0.5 h in “in vitro [22]” came out at 99.1%. The molecule also gave a half-life in [24] of 9.95 h. This molecule registered a half-life at 24 h in “in vivo” of 2.07 h.
In turn, `CCC(CC)[C@H](NC(C)=O)[C@@H]1[C@H](O)[C@@H](C(=O)O)C[C@H]1NC(=N)N` [PERAMIVIR ANHYDROUS] displayed a bioavailability in series [28] of 2.5%.
In the case of `CCC(CC)O[C@@H]1C=C(C(=O)O)C[C@H](NC(=O)Nc2ccccc2)[C@H]1NC(C)=O`, the inhibition in series [1] turned out to be 32.6%; in series [2], 17.6%.
In the case of `CCC(CC)O[C@@H]1C=C(C(=O)O)C[C@H](NC(=O)NCc2ccccc2)[C@H]1NC(C)=O`, the inhibition in series [1] stood at 35.1%; in series [2], 6.8%.
`CCC(CC)O[C@@H]1C=C(C(=O)O)C[C@H](NC(=O)N(C)C)[C@H]1NC(C)=O`: the IC50 in [10] (read-out: IC50) came to 4830 nM.
Turning to `CCC(CC)O[C@@H]1C=C(C(=O)O)C[C@H](NC(=O)NCc2ccc(OC)cc2)[C@H]1NC(C)=O`, the inhibition in series [1] was 36.5%. Moreover, the inhibition result in series [2] was “inactive”.
For `CCC(CC)O[C@@H]1C=C(C(=O)O)C[C@H](NC(=S)N(C(C)C)C(C)C)[C@H]1NC(C)=O` the same measures were 80% and 20%.
As to `O=C(O)Cc1ccccc1Nc1c(Cl)cccc1Cl` [DICLOFENAC], the figures for the half-life at 1 h in the series “in vitro [15]”, in “in vitro [17]” and in “in vitro [27]” were 0.2 h, 0.195 h and 0.735 h, respectively.

For the origin of these results see ChEMBL document CHEMBL4680272 (Eur J Med Chem, 2020).
